Assay results as given in patent US9833497B2, “Human originated EGF domain proteins and use of the same” (CHENGDU SOURCEBIO LIMITED-LIABILITY COMPANY, priority 2013, dated 2017).

How the values were obtained:
Format in all cases: cell-based
E. coli BL21 = test: MIC against Gram-negative bacteria: E. coli BL21; conditions: E. coli BL21; 96-well plate, 5×10^5 CFU/mL, 37° C., 10 h
Procedure, shortened: (§1)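 The recombinant human-originated EGF domain proteins were serially diluted two-fold against bacteria at 5×10^5 CFU/mL in LB medium. After shaken incubation at 37° C, the lowest concentration with no bacterial growth was recorded as the MIC.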

Serratia marcescens = test: MIC against Gram-negative bacteria: Serratia marcescens; conditions: Serratia marcescens; 96-well plate, 5×10^5 CFU/mL, 37° C., 10 h
Procedure, shortened: as §1

Moraxella catarrhalis = test: MIC against Gram-negative bacteria: Moraxella catarrhalis; conditions: Moraxella catarrhalis; 96-well plate, 5×10^5 CFU/mL, 37° C., 10 h
Procedure, shortened: as §1

Klebsiella pneumonia = test: MIC against Gram-negative bacteria: Klebsiella pneumonia; conditions: Klebsiella pneumonia; 96-well plate, 5×10^5 CFU/mL, 37° C., 10 h
Procedure, shortened: as §1

Enterobacter cloacae = test: MIC against Gram-negative bacteria: Enterobacter cloacae; conditions: Enterobacter cloacae; 96-well plate, 5×10^5 CFU/mL, 37° C., 10 h
Procedure, shortened: as §1

Pseudomonas aeruginosa = test: MIC against Gram-negative bacteria: Pseudomonas aeruginosa; conditions: Pseudomonas aeruginosa; 96-well plate, 5×10^5 CFU/mL, 37° C., 10 h
Procedure, shortened: as §1

Citrobacter diversus = test: MIC against Gram-negative bacteria: Citrobacter diversus; conditions: Citrobacter diversus; 96-well plate, 5×10^5 CFU/mL, 37° C., 10 h
Procedure, shortened: as §1

Proteus vulgaris = test: MIC against Gram-negative bacteria: Proteus vulgaris; conditions: Proteus vulgaris; 96-well plate, 5×10^5 CFU/mL, 37° C., 10 h
Procedure, shortened: as §1

Proteus mirabilis = test: MIC against Gram-negative bacteria: Proteus mirabilis; conditions: Proteus mirabilis; 96-well plate, 5×10^5 CFU/mL, 37° C., 10 h
Procedure, shortened: as §1

Aeromonas hydrophila = test: MIC against Gram-negative bacteria: Aeromonas hydrophila; conditions: Aeromonas hydrophila; 96-well plate, 5×10^5 CFU/mL, 37° C., 10 h
Procedure, shortened: as §1

E. coli DH5α = test: Antibacterial activity: MIC and growth curve against E. coli DH5α in 96-well plate; conditions: minimal inhibitory concentration against E. coli DH5α; 96-well plate, 5×10^5 CFU/mL, 37° C., judged after 8 h
Procedure, shortened: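 Log-phase DH5α (OD600 about 0.5, 37° C, 185 rpm in LB) was pelleted, resuspended in fresh LB and seeded at 5×10^5 CFU/mL with recombinant protein at 50, 25 and 12.5 μg/mL (two-fold series), in triplicate. Plates were shaken at 175 rpm, 37° C, and OD600 was read every 30 min. MIC was the lowest concentration with no growth.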

“PRT1236 (IGDGCIDMCSGHGRCIQGNCVCDEQWGGLYCD; listed as Homo sapiens)” was tested, and the “MIC against E. coli BL21” value (E. coli BL21) was 25 mg/L, the “MIC against S. marcescens” value (Serratia marcescens) was 25 mg/L and the “MIC against M. catarrhalis” value (Moraxella catarrhalis) was 12.5 mg/L. For the same substance, the “MIC against K. pneumonia” value (Klebsiella pneumonia) was 50 mg/L, the “MIC against E. cloacae” value (Enterobacter cloacae) was 12.5 mg/L and the “MIC against P. aeruginosa” value (Pseudomonas aeruginosa) was 12.5 mg/L. For the same substance, the “MIC against C. diversus” value (Citrobacter diversus) was 12.5 mg/L, the “MIC against P. vulgaris” value (Proteus vulgaris) was 12.5 mg/L and the “MIC against P. mirabilis” value (Proteus mirabilis) was 25 mg/L. For the same substance, the “MIC against A. hydrophila” value (Aeromonas hydrophila) was 50 mg/L and the MIC (E. coli DH5α) was 50 mg/L.

“PRT1237 (LGPGCLDNCRGHGDCLREQCICDPGYSGPNCY; listed as Homo sapiens)” was tested, and the “MIC against E. coli BL21” value (E. coli BL21) was 12.5 mg/L, the “MIC against S. marcescens” value (Serratia marcescens) was 50 mg/L and the “MIC against M. catarrhalis” value (Moraxella catarrhalis) was 50 mg/L. The “MIC against K. pneumonia” value (Klebsiella pneumonia) was 12.5 mg/L, the “MIC against E. cloacae” value (Enterobacter cloacae) was 12.5 mg/L and the “MIC against P. aeruginosa” value (Pseudomonas aeruginosa) was 25 mg/L. For the same substance, the “MIC against C. diversus” value (Citrobacter diversus) was 25 mg/L, the “MIC against P. vulgaris” value (Proteus vulgaris) was 12.5 mg/L and the “MIC against P. mirabilis” value (Proteus mirabilis) was 25 mg/L. For the same substance, the “MIC against A. hydrophila” value (Aeromonas hydrophila) was 12.5 mg/L and the MIC (E. coli DH5α) was 12.5 mg/L.

In the case of “PRT1238 (IGEACPKLCSGHGYCTTGAICICDESFQGDDCS; listed as Homo sapiens)”, the “MIC against E. coli BL21” value (E. coli BL21) is reported as 12.5 mg/L, the “MIC against S. marcescens” value (Serratia marcescens) is reported as 50 mg/L and the “MIC against M. catarrhalis” value (Moraxella catarrhalis) is reported as 25 mg/L. For the same substance, the “MIC against K. pneumonia” value (Klebsiella pneumonia) was 12.5 mg/L, the “MIC against E. cloacae” value (Enterobacter cloacae) was 50 mg/L and the “MIC against P. aeruginosa” value (Pseudomonas aeruginosa) was 50 mg/L. For the same substance, the “MIC against C. diversus” value (Citrobacter diversus) was 50 mg/L, the “MIC against P. vulgaris” value (Proteus vulgaris) was 25 mg/L and the “MIC against P. mirabilis” value (Proteus mirabilis) was 12.5 mg/L. For the same substance, the “MIC against A. hydrophila” value (Aeromonas hydrophila) was 12.5 mg/L and the MIC (E. coli DH5α) was 25 mg/L.

In the case of “PRT1239 (TIPICEGPDACQKDEVCVKPGLCRCKPGFFGAHCS; listed as Homo sapiens)”, the “MIC against E. coli BL21” value (E. coli BL21) is reported as 12.5 mg/L, the “MIC against S. marcescens” value (Serratia marcescens) is reported as 25 mg/L and the “MIC against M. catarrhalis” value (Moraxella catarrhalis) is reported as 12.5 mg/L. The “MIC against K. pneumonia” value (Klebsiella pneumonia) was 12.5 mg/L, the “MIC against E. cloacae” value (Enterobacter cloacae) was 50 mg/L and the “MIC against P. aeruginosa” value (Pseudomonas aeruginosa) was 50 mg/L. For the same substance, the “MIC against C. diversus” value (Citrobacter diversus) was 50 mg/L, the “MIC against P. vulgaris” value (Proteus vulgaris) was 50 mg/L and the “MIC against P. mirabilis” value (Proteus mirabilis) was 25 mg/L. The “MIC against A. hydrophila” value (Aeromonas hydrophila) was 12.5 mg/L and the MIC (E. coli DH5α) was 25 mg/L.

“PRT1240 (WGPDCRESCPCHPHGQCEPATGACQCQADRWGARCE; listed as Homo sapiens)” was tested, and the “MIC against E. coli BL21” value (E. coli BL21) was 50 mg/L, the “MIC against S. marcescens” value (Serratia marcescens) was 25 mg/L and the “MIC against M. catarrhalis” value (Moraxella catarrhalis) was 50 mg/L. For the same substance, the “MIC against K. pneumonia” value (Klebsiella pneumonia) was 12.5 mg/L, the “MIC against E. cloacae” value (Enterobacter cloacae) was 25 mg/L and the “MIC against P. aeruginosa” value (Pseudomonas aeruginosa) was 12.5 mg/L. For the same substance, the “MIC against C. diversus” value (Citrobacter diversus) was 25 mg/L, the “MIC against P. vulgaris” value (Proteus vulgaris) was 12.5 mg/L and the “MIC against P. mirabilis” value (Proteus mirabilis) was 25 mg/L. The “MIC against A. hydrophila” value (Aeromonas hydrophila) was 12.5 mg/L and the MIC (E. coli DH5α) was 12.5 mg/L.

For “PRT1241 (WSSTCRRPCQCNTAAARCEQATGACVCKPGWWGRRCS; listed as Homo sapiens)”, the “MIC against E. coli BL21” value (E. coli BL21) was 25 mg/L, the “MIC against S. marcescens” value (Serratia marcescens) was 12.5 mg/L and the “MIC against M. catarrhalis” value (Moraxella catarrhalis) was 25 mg/L. The “MIC against K. pneumonia” value (Klebsiella pneumonia) was 50 mg/L, the “MIC against E. cloacae” value (Enterobacter cloacae) was 12.5 mg/L and the “MIC against P. aeruginosa” value (Pseudomonas aeruginosa) was 12.5 mg/L. The “MIC against C. diversus” value (Citrobacter diversus) was 12.5 mg/L, the “MIC against P. vulgaris” value (Proteus vulgaris) was 25 mg/L and the “MIC against P. mirabilis” value (Proteus mirabilis) was 50 mg/L. For the same substance, the “MIC against A. hydrophila” value (Aeromonas hydrophila) was 50 mg/L and the MIC (E. coli DH5α) was 50 mg/L.

For “PRT1242 (WGPECQQQCECVRGRCSAASGECTCPPGFRGARCE; listed as Homo sapiens)”, the “MIC against E. coli BL21” value (E. coli BL21) was 50 mg/L, the “MIC against S. marcescens” value (Serratia marcescens) was 50 mg/L and the “MIC against M. catarrhalis” value (Moraxella catarrhalis) was 25 mg/L. The “MIC against K. pneumonia” value (Klebsiella pneumonia) was 12.5 mg/L, the “MIC against E. cloacae” value (Enterobacter cloacae) was 25 mg/L and the “MIC against P. aeruginosa” value (Pseudomonas aeruginosa) was 25 mg/L. For the same substance, the “MIC against C. diversus” value (Citrobacter diversus) was 50 mg/L, the “MIC against P. vulgaris” value (Proteus vulgaris) was 25 mg/L and the “MIC against P. mirabilis” value (Proteus mirabilis) was 12.5 mg/L. The “MIC against A. hydrophila” value (Aeromonas hydrophila) was 25 mg/L and the MIC (E. coli DH5α) was 25 mg/L.

In the case of “PRT1243 (FGESCEQQCPHCRHGEACEPDTGHCQRCDPGWLGPRCE; listed as Homo sapiens)”, the “MIC against E. coli BL21” value (E. coli BL21) is reported as 50 mg/L, the “MIC against S. marcescens” value (Serratia marcescens) is reported as 12.5 mg/L and the “MIC against M. catarrhalis” value (Moraxella catarrhalis) is reported as 25 mg/L. The “MIC against K. pneumonia” value (Klebsiella pneumonia) was 50 mg/L, the “MIC against E. cloacae” value (Enterobacter cloacae) was 12.5 mg/L and the “MIC against P. aeruginosa” value (Pseudomonas aeruginosa) was 12.5 mg/L. For the same substance, the “MIC against C. diversus” value (Citrobacter diversus) was 12.5 mg/L, the “MIC against P. vulgaris” value (Proteus vulgaris) was 25 mg/L and the “MIC against P. mirabilis” value (Proteus mirabilis) was 50 mg/L. For the same substance, the “MIC against A. hydrophila” value (Aeromonas hydrophila) was 50 mg/L and the MIC (E. coli DH5α) was 12.5 mg/L.
